Results on three compounds are retold here after patent US11779600B2, “Methods of treating or preventing alzheimer's disease and associated conditions” (CEDARS-SINAI MEDICAL CENTER, priority 2016, dated 2023).

Assay type in all cases: cell-based, mouse
The subject of assay [1] is bone marrow-derived macrophages (MΦ^BM). The assay is described as follows: Fibrillar Aβ1-42 phagocytosis assay in bone marrow-derived macrophages. Conditions: 24 hours treatment, then fAβ1-42 for 30 min; quantitative ICC (FIG. 16E). As for the experimental part:
Lyophilized non-fluoro amyloid-β1-42 peptide (#20276; Anaspec) was initially monomerized by dissolving it in ice-cold HFIP (hexafluoroisopropanol) (#52512; Sigma) to a final concentration of 1 mM and then aliquoted in sterile siliconized microcentrifuge tubes. The HFIP was first evaporated while in the sterile hood and then under vacuum conditions in a SpeedVac for 2 h to remove any trace of HFIP; the peptide film was stored at −20° C. until use. To induce fibril formation, fluoro (HiLyte647; #64161; Anaspec) and non-fluoro amyloid-β1-42 films were resuspended in media to which 10% of sterile NaOH 60 mM was first added and the media were vortexed for 30 s. Then, a sterile 45% H2O and a sterile 45% solution of 20 mM NaH2PO4+Na2HPO4 (pH 7.4) were added, and the media were vortexed again and incubated on a shaker for 2 weeks at 37° C. Pre-formed amyloid-β1-42 fibrils were then sonicated for 60 s and diluted to 100 nM using the same media prior to the phagocytosis assay.
To test amyloid-β phagocytosis by macrophage, in repeated experiments monocytes were isolated from the bone marrow of wild-type mice (n=18 mice) and differentiated into macro-phage by 7-day cultivation in complete RPMI-1640 medium (#21870; Life Technologies) with 10% serum and 20 ng/ml MCSF (#315-02; PeproTech). Bone marrow-derived macrophages (MΦBM) were generated from femurs and tibiae cultured for 6-7 days in complete RPMI 1640 medium (Life Technologies) with 10% FBS, 100 U/ml penicillin, 100 μg/ml streptomycin, 2 mM L-glutamine and 20 ng/ml MCSF (PeproTech). Primary cultures of macrophage were then plated at 1.2×10^5 cells per well (3-4 wells for each condition) in 24-well tissue-culture plates on glass cover-slips overnight. Next, macrophages were either treated with 30 μg/ml GA (Copaxone®; TEVA Neuroscience), Brefeldin A (BFA; Sigma, 1X), or 10 μM Minocycline (Sigma) for the duration of 1, 3, or 24 h, or not treated (control group). Before addition of fibrillar amyloid-β1-42, the cells were chilled in a 4° C. ice bath for 5 min; immediately after addition of the preformed fibrillar amyloid-β1-42 (100 nM), the plates were centrifuged at 515g in 25° C. followed by incubation at 37° C. for 30 or 60 min. The cells were then rinsed with amyloid-β-free medium to remove non-incorporated amyloid-β and later washed twice with PBS. Methanol (99.8%) at −20° C. for 20 min or 4% paraformaldehyde at room temperature for 12 min was used for fixation of the cells followed by repeated washes with PBS. […] The fluorescent signal and its total area were determined and quantified by the conversion of individual images to greyscale and standardizing to baseline using histogram-based thresholds with NIH ImageJ software. […]

Another assay relates to iNOS. The experiment in a line: iNOS expression in macrophages by quantitative ICC. Conditions: 24 hours treatment, then fAβ1-42 for 30 min; quantitative ICC (FIG. 16D). The method, then:
To test amyloid-β phagocytosis by macrophage, in repeated experiments monocytes were isolated from the bone marrow of wild-type mice (n=18 mice) and differentiated into macro-phage by 7-day cultivation in complete RPMI-1640 medium (#21870; Life Technologies) with 10% serum and 20 ng/ml MCSF (#315-02; PeproTech). Bone marrow-derived macrophages (MΦBM) were generated from femurs and tibiae cultured for 6-7 days in complete RPMI 1640 medium (Life Technologies) with 10% FBS, 100 U/ml penicillin, 100 μg/ml streptomycin, 2 mM L-glutamine and 20 ng/ml MCSF (PeproTech). Primary cultures of macrophage were then plated at 1.2×10^5 cells per well (3-4 wells for each condition) in 24-well tissue-culture plates on glass cover-slips overnight. […] The fluorescent signal and its total area were determined and quantified by the conversion of individual images to greyscale and standardizing to baseline using histogram-based thresholds with NIH ImageJ software. […]
The expression of inducible nitric oxide synthase (iNOS), a hallmark of the proinflammatory M1 macrophage phenotype, in different treatment groups was assessed next (FIG. 16C-16D). […] Quantitative ICC assays confirmed a significant ˜1.3-fold increase in iNOS expression by minocycline-treated macrophages, and a substantial 48% reduction in Aβ^1-42 phagocytosis. […]

Assay [2] concerns primary cortical neurons (CN). The assay is described as follows: Synaptic toxicity of Aβ1-42 assemblies in primary cortical neurons. The note with it: for reduction in co-localized VGluT1/PSD95+ puncta number: 250 nM Aβ assemblies, 12 hours, vs CN in medium alone (FIG. 1D); for decrease of co-localized VGluT1/PSD95+ puncta synaptic number: overnight exposure (FIG. 2E). The method, then: Initially, synaptic toxicity induced by stable, structurally defined fAβ1-42 and oAβ1-42 forms in primary cortical neurons (CN) was tested. Neurons were incubated for 12 hours with 250 nM of Aβ assemblies or with medium only (vehicle) during day 8 of culture. An extensive loss of pre- and post-synaptic (VGluT1 & PSD-95, respectively) area and number, induced by both f/oAβ1-42 forms, was clearly detected (FIG. 1A-C). Synaptic density quantification indicated a significant 50% reduction in co-localized VGluT1/PSD95^+ puncta number following fAβ1-42. Moreover, we detected a 70% decrease in puncta number by oAβ1-42 when compared with CN in medium alone (FIG. 1D; p<0.0001). […] Next, Aβ-induced neuritic retraction was assessed. CN were immunolabeled with anti-Tuj1 and the total neuritic length per neuron was precisely quantified (FIG. 2A-D). Overnight incubation of f/oAβ1-42 led to a massive neuritic retraction compared with control CN group (FIG. 2B vs. 2A). Whether untreated- and GA-treated BM-derived MΦ (CD68^+ cells) could prevent synaptic and neuritic loss was tested next. Primary CN and MΦ were co-cultured for 48 h and introduced Aβ1-42 forms during the last 12 hours of co-culture. […] Quantitative analysis of co-localized VGluT1/PSD95^+ puncta synaptic number confirmed decreases of 32% and 65% after overnight exposure to fAβ1-42 or oAβ1-42, respectively (FIG. 2E). […] The in vivo effects of Aβ accumulation on synaptopathy and possible synaptic rescue by GA immunization or grafted BM-CD115^+ Mo was assessed. Pre- and post-synaptic alterations in coronal brain sections of 13m old AD^+(ADtg) mice that received these immune-modulation interventions were quantified (FIG. 3A-D). High magnification z-stack images obtained from 19 predefined areas in hippocampus and entorhinal cortex were captured in respective Bregma regions (FIG. 3A-D).
P1 neurons are prepared as previously reported. Briefly, cortical neurons (CN) are obtained from 1 day old neonatal mice, dissociated, resuspended and plated in 24-well culture plate at 5×10^4/ml cells. BM-MΦ are obtained as described herein. In short, mononuclear enriched BM-derived cells are isolated from C57BL/6 mice and differentiated into MΦ for 7 days. […] Cultures are processed for quantification of synaptic density and neuritic length. […] Microphotographs are shot using a Carl Zeiss ApoTome-equipped Axio Imager ZI fluorescence microscope. Synaptic puncta number and synaptic immunoreactive area are quantified with Puncta Analyzer. Total neurite length is measured using NeuriteTracer. At least 3 coverslips, 36 images and 150 neurons for each condition are analyzed. Average puncta number, synaptic area per image or per neuron will be calculated. […] In brief, on day 9 of culture, spontaneous network activity of CN is recorded for 60 min to gain baseline. […]

As to `CN(C)c1ccc(O)c2c1C[C@H]1C[C@H]3[C@H](N(C)C)C(O)=C(C(N)=O)C(=O)[C@@]3(O)C(O)=C1C2=O` [minocycline, Minocycline], the “reduction in Aβ1-42 phagocytosis” value in assay [1] is reported as 48%. In addition, the “increase in iNOS expression” value in the assay with iNOS is reported as roughly 1.3 fold.
Consider “fAβ1-42: pre-formed fibrils of amyloid-β1-42 peptide”, for which, in assay [2], the “reduction in co-localized VGluT1/PSD95+ puncta number” value came out at 50% and the “decrease of co-localized VGluT1/PSD95+ puncta synaptic number” value amounted to 32%.
As to “oAβ1-42: stabilized oligomeric amyloid-β1-42 assemblies”, in assay [2], the “reduction in co-localized VGluT1/PSD95+ puncta number” value is 70% and the “decrease of co-localized VGluT1/PSD95+ puncta synaptic number” value amounted to 65%.
